Test results published in PubChem BioAssay (NCI).
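Exposure lasted 48 hours, with cells grown in 96-well plates and compounds tested at five concentrations. TGI denotes the concentration required for complete inhibition of growth.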

Assays:
Assay in all cases: NCI tumour cell line growth inhibition, 48 h
NCI/ADR-RES ovarian = tested on: NCI/ADR-RES ovarian
MDA-N = tested on: MDA-N
RPMI-8226 leukemia = tested on: RPMI-8226 leukemia
UACC-257 melanoma = tested on: UACC-257 melanoma
HOP-62 NSCLC = tested on: HOP-62 NSCLC
T-47D breast = tested on: T-47D breast
MALME-3M melanoma = tested on: MALME-3M melanoma
EKVX NSCLC = tested on: EKVX NSCLC
DU-145 prostate = tested on: DU-145 prostate
SF-295 CNS = tested on: SF-295 CNS

In the case of `Cc1ccc(C(=O)Nc2ccc(CP(=O)(O)O)cc2)cc1NC(=O)c1cccc(N)c1`, the TGI (NCI/ADR-RES ovarian) is reported as greater than 100 µM, the TGI (MDA-N) is reported as greater than 100 µM and the TGI (RPMI-8226 leukemia) is reported as greater than 100 µM. The TGI (UACC-257 melanoma) was greater than 100 µM, the TGI (HOP-62 NSCLC) was greater than 100 µM and the TGI (T-47D breast) was greater than 100 µM. The TGI (MALME-3M melanoma) was greater than 100 µM, the TGI (EKVX NSCLC) was greater than 100 µM and the TGI (DU-145 prostate) was greater than 100 µM. The TGI (SF-295 CNS) was greater than 100 µM.
In the case of `O=c1c2ccccc2[nH]n1Cc1ccccc1`, the TGI (NCI/ADR-RES ovarian) is reported as greater than 100 µM, the TGI (MDA-N) is reported as greater than 100 µM and the TGI (RPMI-8226 leukemia) is reported as greater than 100 µM. It also gave a TGI (UACC-257 melanoma) greater than 100 µM, a TGI (HOP-62 NSCLC) greater than 100 µM and a TGI (T-47D breast) greater than 100 µM. It also gave a TGI (EKVX NSCLC) greater than 100 µM, a TGI (DU-145 prostate) greater than 100 µM and a TGI (SF-295 CNS) greater than 100 µM.
Work on `O=C1c2ccccc2C(=O)N1CCSCC(CO)SCCN1C(=O)c2ccccc2C1=O` (stereo unspecified) yielded a TGI (NCI/ADR-RES ovarian) greater than 100 µM, a TGI (MDA-N) greater than 100 µM and a TGI (RPMI-8226 leukemia) greater than 100 µM. It also gave a TGI (UACC-257 melanoma) greater than 100 µM, a TGI (HOP-62 NSCLC) greater than 100 µM and a TGI (T-47D breast) greater than 100 µM. It also gave a TGI (MALME-3M melanoma) greater than 100 µM, a TGI (EKVX NSCLC) greater than 100 µM and a TGI (DU-145 prostate) greater than 100 µM. The TGI (SF-295 CNS) was greater than 100 µM.
With `Oc1ccc([C@H]2c3c(O)cc(O)cc3C3c4c(cc(O)cc4[C@@H]2[C@H]2c4cc(O)cc5c4C(c4cc(O)cc(O)c4[C@@H]2c2ccc(O)cc2)[C@@H](c2ccc(O)cc2)O5)O[C@@H]3c2ccc(O)cc2)cc1` (stereo partly specified) the TGI (NCI/ADR-RES ovarian) was greater than 100 µM, the TGI (MDA-N) was greater than 100 µM and the TGI (RPMI-8226 leukemia) was greater than 100 µM. The TGI (UACC-257 melanoma) was greater than 100 µM, the TGI (HOP-62 NSCLC) was greater than 100 µM and the TGI (T-47D breast) was greater than 100 µM. It also gave a TGI (MALME-3M melanoma) greater than 100 µM, a TGI (EKVX NSCLC) greater than 100 µM and a TGI (DU-145 prostate) greater than 100 µM. The TGI (SF-295 CNS) was greater than 100 µM.
`CCOC(=O)NN(C(=O)OCC)C(C(=O)C1=CCCCC1)N(NC(=O)OCC)C(=O)OCC` was tested, and the TGI (NCI/ADR-RES ovarian) was greater than 100 µM, the TGI (MDA-N) was greater than 100 µM and the TGI (RPMI-8226 leukemia) was greater than 100 µM. It also gave a TGI (UACC-257 melanoma) greater than 100 µM, a TGI (HOP-62 NSCLC) greater than 100 µM and a TGI (T-47D breast) greater than 100 µM. The TGI (MALME-3M melanoma) was greater than 100 µM, the TGI (EKVX NSCLC) was greater than 100 µM and the TGI (DU-145 prostate) was greater than 100 µM. It also gave a TGI (SF-295 CNS) greater than 100 µM.
`CCOC(=O)/C=C(\C(=O)OCC)n1ccc(=O)n(Cc2cnnn2CCCCOC(C)=O)c1=O` gave a TGI (NCI/ADR-RES ovarian) of 40.1 µM, a TGI (MDA-N) of 51.4 µM and a TGI (RPMI-8226 leukemia) greater than 22.5 µM. For the same compound, the TGI (UACC-257 melanoma) was 27.4 µM, the TGI (HOP-62 NSCLC) was 41.9 µM and the TGI (T-47D breast) was 17.4 µM. The TGI (MALME-3M melanoma) was 3.84 µM, the TGI (EKVX NSCLC) was 24.8 µM and the TGI (DU-145 prostate) was 36.1 µM. For the same compound, the TGI (SF-295 CNS) was greater than 59.8 µM.
In the case of `O=C1CSC(c2c[nH]c3ccccc23)N1c1ccc(Cl)cc1` (stereo unspecified), the TGI (NCI/ADR-RES ovarian) is reported as greater than 100 µM, the TGI (MDA-N) is reported as greater than 100 µM and the TGI (RPMI-8226 leukemia) is reported as greater than 100 µM. The TGI (UACC-257 melanoma) was greater than 100 µM, the TGI (HOP-62 NSCLC) was greater than 100 µM and the TGI (T-47D breast) was greater than 100 µM. For the same compound, the TGI (EKVX NSCLC) was greater than 100 µM, the TGI (DU-145 prostate) was greater than 100 µM and the TGI (SF-295 CNS) was greater than 100 µM.
With `O=[N+]([O-])C(/C=C(\Cl)[N+](=O)[O-])=C1Nc2ccccc2N1` the TGI (NCI/ADR-RES ovarian) was greater than 100 µM, the TGI (MDA-N) was greater than 100 µM and the TGI (RPMI-8226 leukemia) was greater than 100 µM. It also gave a TGI (UACC-257 melanoma) greater than 100 µM, a TGI (HOP-62 NSCLC) greater than 100 µM and a TGI (T-47D breast) of 69 µM. The TGI (MALME-3M melanoma) was greater than 100 µM, the TGI (EKVX NSCLC) was greater than 100 µM and the TGI (DU-145 prostate) was greater than 100 µM. For the same compound, the TGI (SF-295 CNS) was greater than 100 µM.
`COc1cc(-c2nc3ccc(N4CCN(C)CC4)cc3[nH]2)c(OC)c2[nH]c(COC(C)=O)nc12` showed a TGI (NCI/ADR-RES ovarian) greater than 100 µM, a TGI (MDA-N) greater than 100 µM and a TGI (RPMI-8226 leukemia) greater than 100 µM. For the same compound, the TGI (UACC-257 melanoma) was greater than 100 µM, the TGI (HOP-62 NSCLC) was greater than 100 µM and the TGI (T-47D breast) was greater than 100 µM. It also gave a TGI (MALME-3M melanoma) of 63.8 µM, a TGI (EKVX NSCLC) greater than 100 µM and a TGI (DU-145 prostate) of 95.5 µM. The TGI (SF-295 CNS) was greater than 100 µM.
`CCCCCCCCCCCC(=O)OC[C@H](C[As](=O)(O)O)OC(=O)CCCCCCCCCCC` showed a TGI (NCI/ADR-RES ovarian) of 29.3 µM, a TGI (MDA-N) of 14.8 µM and a TGI (RPMI-8226 leukemia) greater than 76.8 µM. The TGI (UACC-257 melanoma) was 24.9 µM, the TGI (HOP-62 NSCLC) was 31.7 µM and the TGI (T-47D breast) was 47.2 µM. For the same compound, the TGI (MALME-3M melanoma) was 7.14 µM, the TGI (EKVX NSCLC) was 25.6 µM and the TGI (DU-145 prostate) was 44.2 µM. The TGI (SF-295 CNS) was 27 µM.
Work on `COC(=O)N1CC(=O)C(C(=O)NC23CC4CC(CC(C4)C2)C3)C1` (stereo unspecified) yielded a TGI (NCI/ADR-RES ovarian) greater than 100 µM, a TGI (MDA-N) greater than 100 µM and a TGI (RPMI-8226 leukemia) greater than 100 µM. For the same compound, the TGI (UACC-257 melanoma) was greater than 100 µM, the TGI (T-47D breast) was greater than 100 µM and the TGI (MALME-3M melanoma) was greater than 100 µM. For the same compound, the TGI (DU-145 prostate) was greater than 100 µM and the TGI (SF-295 CNS) was greater than 100 µM.
Compound `COc1ccc(/C=C/C(=O)/C=C/c2ccc(OC)cc2OC)c(OC)c1` has a TGI (NCI/ADR-RES ovarian) of 91.4 µM, a TGI (MDA-N) of 6 µM and a TGI (RPMI-8226 leukemia) of 18.6 µM. The TGI (UACC-257 melanoma) was 39.9 µM, the TGI (HOP-62 NSCLC) was 81.1 µM and the TGI (T-47D breast) was greater than 100 µM. For the same compound, the TGI (MALME-3M melanoma) was 26.9 µM, the TGI (EKVX NSCLC) was 33.3 µM and the TGI (DU-145 prostate) was 35.3 µM. The TGI (SF-295 CNS) was 72.5 µM.
`S=C(NCCc1ccccn1)N/N=C/c1ccccn1` was tested, and the TGI (NCI/ADR-RES ovarian) was greater than 100 µM, the TGI (MDA-N) was greater than 100 µM and the TGI (RPMI-8226 leukemia) was 0.186 µM. It also gave a TGI (UACC-257 melanoma) of 1.77 µM, a TGI (HOP-62 NSCLC) of 0.0696 µM and a TGI (T-47D breast) greater than 100 µM. The TGI (MALME-3M melanoma) was greater than 56.5 µM, the TGI (EKVX NSCLC) was greater than 27.7 µM and the TGI (DU-145 prostate) was greater than 100 µM. The TGI (SF-295 CNS) was greater than 100 µM.
`COc1cc(C2C3=C(COC3=O)Oc3cc4c(cc32)OCO4)ccc1O` (stereo unspecified) gave a TGI (NCI/ADR-RES ovarian) greater than 100 µM, a TGI (MDA-N) of 0.346 µM and a TGI (RPMI-8226 leukemia) greater than 63.2 µM. The TGI (UACC-257 melanoma) was greater than 100 µM, the TGI (HOP-62 NSCLC) was greater than 100 µM and the TGI (T-47D breast) was greater than 100 µM. For the same compound, the TGI (EKVX NSCLC) was greater than 100 µM and the TGI (DU-145 prostate) was greater than 100 µM.
`OC1c2ccccc2CCC1CN1CCN(CCOC(c2ccc(F)cc2)c2ccc(F)cc2)CC1` (stereo unspecified) was tested, and the TGI (NCI/ADR-RES ovarian) was 35.3 µM, the TGI (MDA-N) was 36.3 µM and the TGI (RPMI-8226 leukemia) was 64.4 µM. It also gave a TGI (UACC-257 melanoma) of 35.3 µM, a TGI (HOP-62 NSCLC) of 60.5 µM and a TGI (T-47D breast) of 52.9 µM. The TGI (MALME-3M melanoma) was 32.4 µM, the TGI (DU-145 prostate) was 61.4 µM and the TGI (SF-295 CNS) was 46.1 µM.
`C1CSCCSCCCSC2CCCCC2SC1` (stereo unspecified) showed a TGI (NCI/ADR-RES ovarian) greater than 100 µM, a TGI (MDA-N) greater than 100 µM and a TGI (RPMI-8226 leukemia) greater than 100 µM. It also gave a TGI (UACC-257 melanoma) greater than 100 µM, a TGI (HOP-62 NSCLC) greater than 100 µM and a TGI (T-47D breast) greater than 100 µM. The TGI (EKVX NSCLC) was greater than 100 µM, the TGI (DU-145 prostate) was greater than 100 µM and the TGI (SF-295 CNS) was greater than 100 µM.
`CC(=O)Oc1cc(S(=O)(=O)Nc2n[nH]c(Nc3ccc(C)cc3)n2)c(S)cc1Cl` showed a TGI (NCI/ADR-RES ovarian) greater than 100 µM, a TGI (MDA-N) greater than 100 µM and a TGI (RPMI-8226 leukemia) greater than 100 µM. The TGI (UACC-257 melanoma) was greater than 100 µM, the TGI (T-47D breast) was greater than 100 µM and the TGI (MALME-3M melanoma) was greater than 100 µM. The TGI (EKVX NSCLC) was greater than 100 µM, the TGI (DU-145 prostate) was greater than 100 µM and the TGI (SF-295 CNS) was greater than 100 µM.
